Measured values from PMC10890502, “Prevention of Protease-Induced Degradation of Desmoplakin via Small Molecule Binding” (Journal of Personalized Medicine, 2024).
Numbering of substitutions follows the chain as printed. Where a name gives a salt, the structure may show the parent alone. Read-outs that look alike come from different tables or passages of the source.

What was measured:
Assay in all cases: biochemical
sDSP (DSP178–627) [1] = target: T1, sDSP (DSP178–627) (Homo sapiens, UniProt P15924, S442F); set-up: FITC-sDSP S442F degradation by trypsin (1:50), fluorescence polarization after 60 min, per cent of protease-only control; settings: degradation rate of DSP S442F by trypsin; read-out: % of control remaining
T1 construct: gene DSP; N-terminal spectrin repeat/SH3 fragment, residues 178-627; pGEX-1 GST fusion cut with thrombin, E. coli BL21(DE3); fluorescein-5-maleimide label on exposed cysteines (C405, C524)
T1 sequence (P15924 178-627 S442F): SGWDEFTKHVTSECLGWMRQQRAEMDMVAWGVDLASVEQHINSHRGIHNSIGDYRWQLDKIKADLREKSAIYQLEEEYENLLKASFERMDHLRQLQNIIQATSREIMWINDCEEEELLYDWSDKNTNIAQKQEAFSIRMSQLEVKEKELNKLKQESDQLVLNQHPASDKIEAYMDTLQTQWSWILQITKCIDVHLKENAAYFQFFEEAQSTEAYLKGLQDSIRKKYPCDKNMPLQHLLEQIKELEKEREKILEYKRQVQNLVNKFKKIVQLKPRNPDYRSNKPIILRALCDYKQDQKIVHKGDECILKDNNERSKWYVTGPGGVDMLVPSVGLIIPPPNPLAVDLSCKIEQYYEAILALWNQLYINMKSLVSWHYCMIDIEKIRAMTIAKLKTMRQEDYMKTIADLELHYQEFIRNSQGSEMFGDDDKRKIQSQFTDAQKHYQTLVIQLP
Description: Fluorescence Polarization (FP) assays were conducted in […] format using a BioTek Synergy H4 plate reader with polarization capacity (Agilent; Savage, MD, USA). All samples were run at 25 °C using PBS pH 7.4, 1 mM DTT, 10 mM CaCl2, 5% DMSO, and […] FITC- DSP178–627, with 500 μM of each drug. Trypsin, chymotrypsin, or calpain at either 1:50, 1:50, or 1:20 concentration was added directly before data collection with an average void time of 2 min. Control experiments in each plate were conducted in triplicate and consisted of DSP178–627 + DMSO + protease as a positive control and DSP178–627 + DMSO + [compound left out] + protease as a negative control. Only plates that had functional positive and negative controls were used in data analysis. Samples were excited at 485 nm, and polarization was monitored at 528 nm. Data were collected at 5 min increments for 1–3 h. A mutation that partially occludes the DSP calpain cleavage site rescues DSP protein levels. We next assessed whether protease-dependent cleavage can also be blocked by small molecules. We screened 2496 FDA-approved drugs for their ability to prevent trypsin-dependent cleavage of sDSP S442F in our FP assay (Figure 3A). […] No change in fluorescence polarization after an hour is indicative of 0% protein degradation rate, as occurs in the [compound left out] positive control. […] (A) sDSP S442F degradation in the presence of trypsin plus 2496 compounds from the Cayman chemical “FDA library”. A degradation rate of 100% indicates the same desmoplakin degradation rate with and without the addition of 500 μM drug while a 0% rate indicates no degradation, as judged by fluorescent polarization values after 1 h. A trypsin-only control and a trypsin + [compound left out] control is indicated. Protection (red lines) was arbitrarily set between 33% and −10%. […] (B) Example of how the data in A was generated.

sDSP (DSP178–627) [2] = target: T2, sDSP (DSP178–627) (Homo sapiens, UniProt P15924); set-up: FITC-sDSP degradation by calpain (1:20), fluorescence polarization after 60 min, per cent of calpain-only control; settings: degradation rate of DSP WT by calpain; read-out: % of control remaining
T2 construct: gene DSP; N-terminal spectrin repeat/SH3 fragment, residues 178-627; pGEX-1 GST fusion cut with thrombin, E. coli BL21(DE3); fluorescein-5-maleimide label on exposed cysteines (C405, C524)
T2 sequence (P15924 178-627): T1 sequence (P15924 178-627 S442F) with F265S
Description: (§1) Fluorescence Polarization (FP) assays were conducted in […] format using a BioTek Synergy H4 plate reader with polarization capacity (Agilent; Savage, MD, USA). All samples were run at 25 °C using PBS pH 7.4, 1 mM DTT, 10 mM CaCl2, 5% DMSO, and […] FITC- DSP178–627, with 500 μM of each drug. Trypsin, chymotrypsin, or calpain at either 1:50, 1:50, or 1:20 concentration was added directly before data collection with an average void time of 2 min. Control experiments in each plate were conducted in triplicate and consisted of DSP178–627 + DMSO + protease as a positive control and DSP178–627 + DMSO + [compound left out] + protease as a negative control. Only plates that had functional positive and negative controls were used in data analysis. Samples were excited at 485 nm, and polarization was monitored at 528 nm. Data were collected at 5 min increments for 1–3 h. […] Therefore, we next tested whether these 62 compounds also prevent wildtype and variant DSP degradation in the presence of calpain. […] (A) Normalized fluorescent polarization of WT and sDSP variants in the presence of a 1:20 ratio of calpain plus 500 μM drug, as compared to calpain alone (black) (B) Identity and chemical structure of the six best-performing compounds.

sDSP (DSP178–627) [3] = target: T3, sDSP (DSP178–627) (Homo sapiens, UniProt P15924, R451G); set-up: FITC-sDSP degradation by calpain (1:20), fluorescence polarization after 60 min, per cent of calpain-only control; settings: degradation rate of DSP R451G by calpain; read-out: % of control remaining
T3 construct: gene DSP; N-terminal spectrin repeat/SH3 fragment, residues 178-627; pGEX-1 GST fusion cut with thrombin, E. coli BL21(DE3); fluorescein-5-maleimide label on exposed cysteines (C405, C524)
T3 sequence (P15924 178-627 R451G): T1 sequence (P15924 178-627 S442F) with F265S, R274G
Description: as §1

sDSP (DSP178–627) [4] = target: T1, sDSP (DSP178–627); set-up: FITC-sDSP degradation by calpain (1:20), fluorescence polarization after 60 min, per cent of calpain-only control; settings: degradation rate of DSP S442F by calpain; read-out: % of control remaining
Description: as §1

sDSP S507F = target: T4, sDSP S507F (Homo sapiens, UniProt P15924, S507F); set-up: FITC-sDSP degradation by calpain (1:20), fluorescence polarization after 60 min, per cent of calpain-only control; settings: degradation rate of DSP S507F by calpain; read-out: % of control remaining
T4 construct: gene DSP; N-terminal fragment, residues 178-627
T4 sequence (P15924 whole entry S507F, the tested form may be a part): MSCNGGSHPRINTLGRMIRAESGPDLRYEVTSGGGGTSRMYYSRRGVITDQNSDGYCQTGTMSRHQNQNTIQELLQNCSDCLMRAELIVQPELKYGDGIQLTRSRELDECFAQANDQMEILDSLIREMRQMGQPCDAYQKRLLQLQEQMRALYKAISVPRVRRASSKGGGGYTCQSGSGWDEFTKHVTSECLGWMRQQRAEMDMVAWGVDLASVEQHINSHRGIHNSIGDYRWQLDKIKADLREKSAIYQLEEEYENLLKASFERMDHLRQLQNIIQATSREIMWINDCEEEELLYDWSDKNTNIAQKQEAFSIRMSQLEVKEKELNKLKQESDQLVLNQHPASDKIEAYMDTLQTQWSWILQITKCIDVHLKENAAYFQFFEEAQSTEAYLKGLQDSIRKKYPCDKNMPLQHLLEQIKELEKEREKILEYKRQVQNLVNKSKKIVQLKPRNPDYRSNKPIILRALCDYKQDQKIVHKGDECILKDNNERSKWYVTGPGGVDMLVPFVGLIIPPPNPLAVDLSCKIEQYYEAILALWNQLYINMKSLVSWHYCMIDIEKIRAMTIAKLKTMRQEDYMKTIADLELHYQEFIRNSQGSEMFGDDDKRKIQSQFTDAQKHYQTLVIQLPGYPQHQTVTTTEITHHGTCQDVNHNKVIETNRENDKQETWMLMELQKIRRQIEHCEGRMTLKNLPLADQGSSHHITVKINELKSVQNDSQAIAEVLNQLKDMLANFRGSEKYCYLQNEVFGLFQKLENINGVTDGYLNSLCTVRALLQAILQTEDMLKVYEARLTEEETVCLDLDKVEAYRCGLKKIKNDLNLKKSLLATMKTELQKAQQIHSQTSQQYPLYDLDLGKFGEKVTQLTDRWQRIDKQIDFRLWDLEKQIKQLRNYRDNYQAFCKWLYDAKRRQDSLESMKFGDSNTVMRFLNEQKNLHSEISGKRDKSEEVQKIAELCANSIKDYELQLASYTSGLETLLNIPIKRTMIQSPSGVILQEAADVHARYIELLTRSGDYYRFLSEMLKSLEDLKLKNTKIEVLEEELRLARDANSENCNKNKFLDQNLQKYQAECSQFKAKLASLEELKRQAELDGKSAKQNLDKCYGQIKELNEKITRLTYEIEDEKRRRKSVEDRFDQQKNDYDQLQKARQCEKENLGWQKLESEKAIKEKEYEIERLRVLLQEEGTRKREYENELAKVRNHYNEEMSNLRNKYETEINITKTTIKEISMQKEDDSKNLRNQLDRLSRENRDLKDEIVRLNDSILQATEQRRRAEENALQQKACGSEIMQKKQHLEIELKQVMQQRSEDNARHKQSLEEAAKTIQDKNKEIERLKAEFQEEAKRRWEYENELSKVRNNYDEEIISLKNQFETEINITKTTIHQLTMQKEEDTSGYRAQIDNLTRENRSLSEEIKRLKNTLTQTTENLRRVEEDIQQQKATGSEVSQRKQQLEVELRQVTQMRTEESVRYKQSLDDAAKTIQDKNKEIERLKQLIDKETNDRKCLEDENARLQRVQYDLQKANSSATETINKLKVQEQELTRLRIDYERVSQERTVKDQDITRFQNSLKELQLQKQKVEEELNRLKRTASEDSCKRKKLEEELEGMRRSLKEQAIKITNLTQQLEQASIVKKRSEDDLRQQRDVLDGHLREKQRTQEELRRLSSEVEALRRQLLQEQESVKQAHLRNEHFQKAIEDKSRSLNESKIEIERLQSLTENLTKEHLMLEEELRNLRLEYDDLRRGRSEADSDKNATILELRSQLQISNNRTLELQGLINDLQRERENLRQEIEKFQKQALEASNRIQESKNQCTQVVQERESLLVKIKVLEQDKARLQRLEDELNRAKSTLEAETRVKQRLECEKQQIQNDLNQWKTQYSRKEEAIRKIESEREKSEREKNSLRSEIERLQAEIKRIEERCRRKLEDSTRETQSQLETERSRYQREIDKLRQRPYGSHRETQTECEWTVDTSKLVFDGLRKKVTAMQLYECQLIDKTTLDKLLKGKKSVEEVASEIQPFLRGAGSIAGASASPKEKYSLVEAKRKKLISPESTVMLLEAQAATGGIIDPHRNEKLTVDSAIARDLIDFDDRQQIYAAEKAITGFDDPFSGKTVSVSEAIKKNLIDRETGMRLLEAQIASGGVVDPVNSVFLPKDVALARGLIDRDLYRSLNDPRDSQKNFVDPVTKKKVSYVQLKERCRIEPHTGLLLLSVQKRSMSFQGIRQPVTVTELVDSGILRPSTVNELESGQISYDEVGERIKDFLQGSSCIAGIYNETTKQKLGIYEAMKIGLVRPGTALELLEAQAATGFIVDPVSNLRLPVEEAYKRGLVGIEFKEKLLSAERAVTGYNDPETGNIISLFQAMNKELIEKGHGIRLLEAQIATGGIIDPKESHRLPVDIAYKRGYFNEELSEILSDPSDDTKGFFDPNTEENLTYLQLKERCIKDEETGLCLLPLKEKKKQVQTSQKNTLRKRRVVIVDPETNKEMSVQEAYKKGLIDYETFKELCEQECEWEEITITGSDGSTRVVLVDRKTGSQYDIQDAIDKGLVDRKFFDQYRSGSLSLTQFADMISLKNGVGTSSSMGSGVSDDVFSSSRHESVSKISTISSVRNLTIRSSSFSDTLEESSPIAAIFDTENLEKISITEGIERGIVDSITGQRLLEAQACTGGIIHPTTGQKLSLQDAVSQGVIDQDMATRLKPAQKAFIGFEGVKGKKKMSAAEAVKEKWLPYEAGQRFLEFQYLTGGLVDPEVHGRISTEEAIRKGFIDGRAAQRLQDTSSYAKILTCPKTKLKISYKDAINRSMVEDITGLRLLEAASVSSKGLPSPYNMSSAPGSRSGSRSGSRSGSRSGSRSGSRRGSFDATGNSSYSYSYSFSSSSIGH
Description: as §1

SMILES | remaining activity at 500 µM (sDSP (DSP178–627) [1]) | remaining activity at 500 µM (sDSP (DSP178–627) [2]) | remaining activity at 500 µM (sDSP (DSP178–627) [3]) | remaining activity at 500 µM (sDSP (DSP178–627) [4]) | remaining activity at 500 µM (sDSP S507F)
CN1CCN(C2=Nc3ccccc3Oc3ccc(Cl)cc32)CC1 [Loxipine Succinate] | 1% | -8% | -41% | 101% | 107%
CCCCCCCCCCCCOS(=O)(=O)O [SDS] | 18% | 24% | -20% | 21% | -30%
CCCCc1oc2ccc(NS(C)(=O)=O)cc2c1C(=O)c1ccc(OCCCN(CCCC)CCCC)cc1 [Dronedarone HCl] | 23% | 143% | 20% | 0% | 25%
C=C(c1ccc(C(=O)O)cc1)c1cc2c(cc1C)C(C)(C)CCC2(C)C [Bexarotene] | 26% | 81% | 39% | 84% | 4%
CNC(=O)c1c(F)cccc1Nc1nc(Nc2cc3c(cc2OC)CCN3C(=O)CN(C)C)nc2[nH]ccc12 [GSK1838705A] | 32% | 35% | 34% | 23% | 24%
CCCCCCCCCCCCCCCC(=O)NCCO [palmitoylethanolamide] | 26% | 22% | 8% | -3% | 3%
CC(=O)O[C@H]1C(=O)[C@@]2(C)[C@H]([C@H](OC(=O)c3ccccc3)[C@]3(O)C[C@H](OC(=O)[C@H](O)[C@@H](NC(=O)c4ccccc4)c4ccccc4)C(C)=C1C3(C)C)[C@]1(OC(C)=O)CO[C@@H]1C[C@@H]2O [Taxol] | 31% | 48% | 38% | 87% | 34%
Fc1ccc([C@@H]2CCNC[C@H]2COc2ccc3c(c2)OCO3)cc1 [Paraxetine] | 20% | -8% | 26% | -3% | 133%

Results, then the compound that gave them:

remaining activity at 500 µM (sDSP (DSP178–627) [1]) | remaining activity at 500 µM (sDSP (DSP178–627) [2]) | remaining activity at 500 µM (sDSP (DSP178–627) [3]) | remaining activity at 500 µM (sDSP (DSP178–627) [4]) | remaining activity at 500 µM (sDSP S507F) | SMILES
18% | 67% | 15% | -40% | 84% | Cn1cc(-c2ccc(F)c(C(F)(F)F)c2)nc1C1CCN(c2ncnc3[nH]ncc23)CC1 [LY2584702]
-8% | 32% | -5% | 29% | 26% | CC(C)=CCC/C(C)=C/CC/C(C)=C/CSc1ccccc1C(=O)O [salirasib]
-3% | -6% | 4% | 62% | 108% | Cc1ccc(NC(=O)c2ccc(CN3CCN(C)CC3)cc2)cc1Nc1nccc(-c2cccnc2)n1 [Imatinib]
-1% | 35% | -13% | 70% | 32% | CCCCCCCCc1ccc(CCC(N)(CO)CO)cc1 [Fingolimod]
32% | 118% | 40% | 62% | 4% | O=C(NC1CCN(CCCCC2(C(=O)NCC(F)(F)F)c3ccccc3-c3ccccc32)CC1)c1ccccc1-c1ccc(C(F)(F)F)cc1 [Lomitapide]
20% | 54% | 32% | 86% | 20% | NC1(Cc2ccc(Cl)cc2)CCN(c2ncnc3[nH]ccc23)CC1 [CCT128930]
18% | 84% | 30% | 73% | 0% | COc1ccc(-c2cc(=O)c3c(O)cc(O)cc3o2)cc1O [Diosmetin]
32% | 30% | 33% | 26% | 31% | CCCCc1ncc(/C=C(\Cc2cccs2)C(=O)O)n1Cc1ccc(C(=O)O)cc1 [eprosarten mesylate]
32% | -12% | 118% | -19% | 104% | CC/C=C\C/C=C\C/C=C\C/C=C\C/C=C\C/C=C\CCC(=O)O [Docosahexaenoic Acid]
